Data: patent US20240158446A1, “CYCLIC COMPOUND HAVING SELECTIVE INHIBITORY ACTION ON KRAS OVER HRAS AND NRAS” (CHUGAI SEIYAKU KABUSHIKI KAISHA, priority 2021, published 2024)
Like-named read-outs stand apart in the source and are kept apart here. *1 amine or outer side, *2 acyl side, *3 side chain or, on linkers, in order; H or OH if unused. Where a SMILES comes first, the peptide text is derived from it. Bridges are numbered along the chain shown (N, C = ends). [ ]: non-standard residue; d: D form. The star is where a group is joined. ξ: configuration not given here. hPhe(3-Cl-4-CF3) = N[C@@H](CCc1ccc(C(F)(F)F)c(Cl)c1)C(=O)O; NPrPhe(4-CF3) = CCCN[C@@H](Cc1ccc(C(F)(F)F)cc1)C(=O)O; X26 = C=CCN([C@@H](Cc1ccccc1)C(=O)[*:2])[*:1]; NEtPhe(4-Me) = CCN[C@@H](Cc1ccc(C)cc1)C(=O)O; NMeGly(cPent) = CN[C@H](C(=O)O)C1CCCC1; NMeNle(5-ene) = C=CCC[C@H](NC)C(=O)O; dIle(3ξ) = CCC(C)[C@@H](N)C(=O)O; NMeD = CN[C@@H](CC(=O)O)C(=O)O; NMeL = CN[C@@H](CC(C)C)C(=O)O; Morpholide = C1CN(*)CCO1; NMeA = CN[C@@H](C)C(=O)O; NMeAib = CNC(C)(C)C(=O)O; Nle = CCCC[C@H](N)C(=O)O; Piperidide = C1CCN(*)CC1; Ac5c = NC1(C(=O)O)CCCC1; Aze = O=C(O)[C@@H]1CCN1; Sar = CNCC(=O)O

Key:
[1] = biological target: GDP-bound KRAS wild-type protein (Homo sapiens, UniProt P01116); assay: Binding to KRAS by surface plasmon resonance (SPR), Single Cycle Kinetics; conditions: GDP-bound KRAS wild-type protein, read-out: KRAS KD
Chain of GDP-bound KRAS wild-type protein (P01116 whole entry): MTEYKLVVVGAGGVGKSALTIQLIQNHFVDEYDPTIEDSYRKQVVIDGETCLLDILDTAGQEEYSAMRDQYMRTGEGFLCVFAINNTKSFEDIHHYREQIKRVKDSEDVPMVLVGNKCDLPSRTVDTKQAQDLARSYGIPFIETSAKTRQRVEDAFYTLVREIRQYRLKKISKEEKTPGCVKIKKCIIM

[2] = biological target: GDP-bound NRAS wild-type protein (Homo sapiens, UniProt P01111); assay: Binding to NRAS by surface plasmon resonance (SPR), Single Cycle Kinetics; conditions: SPR, GDP-bound NRAS wild-type protein vs GDP-bound KRAS wild-type protein
Chain of GDP-bound NRAS wild-type protein (P01111 whole entry): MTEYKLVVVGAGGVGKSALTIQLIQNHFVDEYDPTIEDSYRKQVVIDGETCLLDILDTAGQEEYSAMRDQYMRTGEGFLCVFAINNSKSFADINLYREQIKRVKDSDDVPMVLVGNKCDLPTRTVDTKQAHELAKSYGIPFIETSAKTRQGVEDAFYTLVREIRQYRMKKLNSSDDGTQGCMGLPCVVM

[3] = biological target: GDP-bound HRAS wild-type protein (Homo sapiens, UniProt P01112); assay: Binding to HRAS by surface plasmon resonance (SPR), Single Cycle Kinetics; conditions: SPR, GDP-bound HRAS wild-type protein vs GDP-bound KRAS wild-type protein
Chain of GDP-bound HRAS wild-type protein (P01112 whole entry): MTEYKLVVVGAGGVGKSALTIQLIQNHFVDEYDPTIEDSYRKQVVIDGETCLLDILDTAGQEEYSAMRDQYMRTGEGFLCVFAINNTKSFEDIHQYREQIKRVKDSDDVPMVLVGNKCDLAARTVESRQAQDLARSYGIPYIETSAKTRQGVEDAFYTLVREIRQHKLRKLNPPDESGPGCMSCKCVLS

[4] = SPR Single Cycle Kinetics, 1:1 binding model

SMILES	Kd ([1]; SPR, Single Cycle Kinetics) [nM]	NRAS/KRAS (ratio of KD value for NRAS to KD value for KRAS) [2]	HRAS/KRAS (ratio of KD value for HRAS to KD value for KRAS) [3]	Kd [1, 4] [nM]	NRAS/KRAS (ratio of KD value with respect to NRAS to KD value with respect to KRAS) [2]	HRAS/KRAS (ratio of KD value with respect to HRAS to KD value with respect to KRAS) [3]
CCC[C@H]1C(=O)N[C@@H]([C@@H](C)CC)C(=O)N(C)CC(=O)N(C)[C@H]2C/C=C\CCN(C2=O)[C@@H](Cc2ccc(C(F)(F)F)cc2)C(=O)N(C)CC(=O)N[C@@H](CCc2ccc(C(F)(F)F)c(Cl)c2)C(=O)N2CC3(CC3)C[C@H]2C(=O)NC2(CC(C)(C)C2)C(=O)N(C)[C@@H](CC(C)(C)C)C(=O)N(C)[C@H](C(=O)N(C)C)CC(=O)N1C [PP2979]	0.28	A (a compound having 10 or more and less than 20 is denoted as A)	B (a compound having 3 or more and less than 10 is denoted as B)	–	–	–
CC[C@H](C)[C@@H]1NC(=O)[C@H](CC(C)C)N(C)C(=O)C[C@@H](C(=O)N2CCOCC2)N(C)C(=O)[C@H](C2CCCC2)N(C)C(=O)C2(CCCC2)NC(=O)[C@@H]2C[C@H](O)CN2C(=O)[C@H](CCc2cc(F)c(C(F)(F)F)c(F)c2)NC(=O)CN(C)C(=O)[C@H](Cc2ccc(C(F)(F)F)cc2)N2CCCC[C@@H](C2=O)N(C)C(=O)CN(C)C1=O [PP0556]	–	–	–	0.024	C (A compound having a KD ratio of 0.1 or more and less than 3 is denoted as C)	B (a compound having 3 or more and less than 10 is denoted as B)
CCCN1C(=O)[C@@H]2CCN2C(=O)[C@H](C)N(C)C(=O)[C@H]([C@@H](C)CC)NC(=O)[C@H](CC(C)C)N(C)C(=O)C[C@@H](C(=O)N(C)C)N(C)C(=O)[C@H](C2CCCC2)N(C)C(=O)C2(CCCC2)NC(=O)[C@@H]2CCCN2C(=O)[C@H](CCc2ccc(C(F)(F)F)c(Cl)c2)NC(=O)CN(C)C(=O)[C@@H]1Cc1ccc(C(F)(F)F)cc1 [PP0178] ([NMeL]I[NMeA][Aze][NPrPhe(4-CF3)][Sar][hPhe(3-Cl-4-CF3)]P[Ac5c][NMeGly(cPent)][NMeD]-NMe2; lactam N-11)	–	C (A compound having a KD ratio of 0.1 or more and less than 3 is denoted as C)	B (a compound having 3 or more and less than 10 is denoted as B)	0.073	–	–
CCO[C@@H]1C[C@H]2C(=O)NC3(CC(C)(C)C3)C(=O)N(C)[C@@H](C(CC)CC)C(=O)N(C)[C@H](C(=O)N(C)C)CC(=O)N(C)[C@@H](CC3CC3)C(=O)N[C@@H]([C@@H](C)CC)C(=O)N(C)CC(=O)N(C)[C@H]3C/C=C\CCN(C3=O)[C@@H](Cc3ccc(C(F)(F)F)cc3)C(=O)N(C)CC(=O)N[C@@H](CCc3ccc(C(F)(F)F)c(Cl)c3)C(=O)N2C1 [PP2124]	0.26	AA (a compound having 20 or more is denoted as AA)	A (a compound having 10 or more and less than 20 is denoted as A)	–	–	–
CC[C@H](C)[C@@H]1NC(=O)[C@H](CC(C)C)N(C)C(=O)C[C@@H](C(=O)N2CCOCC2)N(C)C(=O)[C@H](C2CCCC2)N(C)C(=O)C2(CCCC2)NC(=O)[C@@H]2C[C@H](OC)CN2C(=O)[C@H](CCc2cc(F)c(C(F)(F)F)c(F)c2)NC(=O)CN(C)C(=O)[C@H](Cc2ccc(C(F)(F)F)cc2)N2CCCCC[C@@H](C2=O)N(C)C(=O)CN(C)C1=O [PP0495]	–	–	–	5.1	A (a compound having 10 or more and less than 20 is denoted as A)	B (a compound having 3 or more and less than 10 is denoted as B)
CC[C@H](C)[C@@H]1NC(=O)[C@H](CC(C)C)N(C)C(=O)C[C@@H](C(=O)N2CCOCC2)N(C)C(=O)[C@H](C2CCCC2)N(C)C(=O)C2(CCC2)NC(=O)[C@@H]2[C@H]3C[C@H]3CN2C(=O)[C@H](CCc2cc(F)c(C(F)(F)F)c(F)c2)NC(=O)CN(C)C(=O)[C@H](Cc2ccc(C(F)(F)F)cc2)N2CCCC[C@@H](C2=O)N(C)C(=O)CN(C)C1=O [PP0810]	0.04	B (a compound having 3 or more and less than 10 is denoted as B)	B (a compound having 3 or more and less than 10 is denoted as B)	–	–	–
CCO[C@@H]1C[C@H]2C(=O)NC3(CC(C)(C)C3)C(=O)N(C)[C@@H](C(CC)CC)C(=O)N(C)[C@H](C(=O)N3CCCC3)CC(=O)N(C)[C@@H](CC)C(=O)N[C@@H]([C@@H](C)CC)C(=O)N(C)CC(=O)N(C)[C@H]3C/C=C\CCN(C3=O)[C@@H](Cc3ccc(C)cc3)C(=O)N(C)CC(=O)N[C@@H](CCc3ccc(C(F)(F)F)c(OC)c3)C(=O)N2C1 [PP2171]	0.75	A (a compound having 10 or more and less than 20 is denoted as A)	A (a compound having 10 or more and less than 20 is denoted as A)	–	–	–
CCC[C@H]1C(=O)N[C@@H]([C@@H](C)CC)C(=O)N(C)CC(=O)N(C)[C@H]2C/C=C\CCN(C2=O)[C@@H](Cc2ccc(C(F)(F)F)cc2)C(=O)N(C)CC(=O)N[C@@H](CCc2ccc(C(F)(F)F)c(Cl)c2)C(=O)N2CC3(CC3)C[C@H]2C(=O)NC2(CC(C)(C)C2)C(=O)N(C)[C@@H]([C@@H](C)CC)C(=O)N(C)[C@H](C(=O)N(C)C)CC(=O)N1C [PP2983]	0.5	AA (a compound having 20 or more is denoted as AA)	A (a compound having 10 or more and less than 20 is denoted as A)	–	–	–
C=CCC[C@H]1C(=O)N(CC=C)[C@@H](Cc2ccccc2)C(=O)N(C)CC(=O)N[C@@H](CCc2ccc(C(F)(F)F)c(Cl)c2)C(=O)N2CCC[C@H]2C(=O)NC2(CCCC2)C(=O)N(C)[C@@H](C2CCCC2)C(=O)N(C)[C@H](C(=O)N2CCOCC2)CC(=O)N(C)[C@@H](CC(C)C)C(=O)N[C@H](C(C)CC)C(=O)N(C)CC(=O)N1C (stereo partly drawn) [PP0599] ([NMeL][dIle(3ξ)][Sar][NMeNle(5-ene)][X26][Sar][hPhe(3-Cl-4-CF3)]P[Ac5c][NMeGly(cPent)][NMeD]-Morpholide; lactam N-11)	–	–	–	180	C (A compound having a KD ratio of 0.1 or more and less than 3 is denoted as C)	B (a compound having 3 or more and less than 10 is denoted as B)
CCCC[C@@H]1NC(=O)[C@H](CCc2ccc(C(F)(F)F)c(Cl)c2)NC(=O)CN(C)C(=O)[C@H](Cc2ccc(C)cc2)N(CC)C(=O)[C@@H]2CCN2C(=O)[C@H](C)N(C)C(=O)[C@H]([C@@H](C)CC)NC(=O)[C@H](CC(C)C)N(C)C(=O)C[C@@H](C(=O)N2CCCCC2)N(C)C(=O)[C@H](CC(C)C)NC(=O)C(C)(C)N(C)C1=O [PP0048] ([NMeL]I[NMeA][Aze][NEtPhe(4-Me)][Sar][hPhe(3-Cl-4-CF3)][Nle][NMeAib]L[NMeD]-Piperidide; lactam N-11)	–	C (A compound having a KD ratio of 0.1 or more and less than 3 is denoted as C)	C (A compound having a KD ratio of 0.1 or more and less than 3 is denoted as C)	63	–	–
